Patent publication US20120252741A1, “NOVEL SEMI-SYNTHETIC GLYCOPEPTIDES AS ANTIBACTERIAL AGENTS” (priority 2008, published 2012)
Values after ≈ are worked out from the molar mass of the structure shown. Where two headings read alike, the source gives them in different places.

Experiments:
Format in all cases: cell-based
[1] = system: Staphylococcus aureus 100 (ATCC 29213); assay: MIC, broth microdilution, SA 100; settings: for MIC: Staphylococcus aureus
Protocol: (§1) Antibacterial activity in vitro is investigated by broth microdilution method in Meuller-Hinton broth as recommended by NCCLS. All strains tested are clinical isolates either sensitive or resistant to natural glycopeptides. MIC values were determined using the CLSI-recommended broth microdilution procedure (Clinical and Laboratory Standards Institute, Methods for Dilution Antimicrobial Susceptibility Tests for Bacteria That Grow Aerobically; Approved Standard-Seventh Edition.). Automated liquid handlers (Multidrop 384, Labsystems, Helsinki, Finland; Biomek 2000 and Multimek 96, Beckman Coulter, Fullerton Calif.) were used to conduct serial dilutions and liquid transfers. The MIC value for vancomycin is given for comparison. The abbreviations for organisms tested are as follow: SA 100—Staphylococcus aureus 100 (ATCC 29213); SA 757—Staphylococcus aureus 757 (MRSA); SA 2012—Staphylococcus aureus 2012 (VISA); SE 835—Staphylococcus epidermidis 835; SE 831—Staphylococcus epidermidis 831 (MRSE); EFc 101—Enterococcus faecalis 101 (ATCC 29212); EFc 848—Enterococcus faecalis 848 (VRE, Van A); EFcm 800—Enterococcus faecium 800; EFcm 752—Enterococcus faecium 752 (VRE, Van A); SPNE 1195—Streptococcus pneumoniae 1195 (ATCC 49619); SPY 712—Streptococcus pyogenes 712.

[2] = system: Staphylococcus aureus 757 (MRSA); assay: MIC, broth microdilution, SA 757
Protocol: as §1

[3] = system: Staphylococcus aureus 2012 (VISA); assay: MIC, broth microdilution, SA 2012
Protocol: as §1

[4] = system: Staphylococcus epidermidis 835; assay: MIC, broth microdilution, SE 835
Protocol: as §1

[5] = system: Staphylococcus epidermidis 831 (MRSE); assay: MIC, broth microdilution, SE 831; settings: for MIC: Staphylococcus epidermidis, read-out: MIC SE 831
Protocol: as §1

[6] = system: Enterococcus faecalis 101 (ATCC 29212); assay: MIC, broth microdilution, EFc 101; settings: for MIC: Enterococcus faecalis
Protocol: as §1

[7] = system: Enterococcus faecalis 848 (VRE, Van A); assay: MIC, broth microdilution, EFc 848; settings: for MIC: read-out: MIC E FC 848
Protocol: as §1

Enterococcus faecium 800 = assay: MIC, broth microdilution, EFcm 800
Protocol: as §1

[8] = system: Enterococcus faecium 752 (VRE, Van A); assay: MIC, broth microdilution, EFcm 752; settings: for MIC: read-out: MIC E FCM 752
Protocol: as §1

[9] = system: Streptococcus pneumoniae 1195 (ATCC 49619); assay: MIC, broth microdilution, SPNE 1195; settings: for MIC: Streptococcus pneumoniae
Protocol: as §1

[10] = system: Streptococcus pyogenes 712; assay: MIC, broth microdilution, SPY 712
Protocol: as §1

[11] = Table 2, in the presence of 0.002% Polysorbate 80, numeric value, comparison
[12] = Table 2, VRE, Van A, in the presence of 0.002% Polysorbate 80, numeric value, comparison
[13] = ATCC29213, Table 1, class symbols, read-out: MIC SA 100
[14] = Table 1, class symbols, read-out: MIC SA 757
[15] = Table 1, class symbols, read-out: MIC SA 2012
[16] = Staphylococcus epidermidis, 835, Table 1, class symbols, read-out: MIC SE 835
[17] = ATCC29212, Table 1, class symbols, read-out: MIC E FC 101
[18] = Table 1, VRE, Van A, class symbols
[19] = Enterococcus faecium, 800, Table 1, class symbols, read-out: MIC E FCM 800
[20] = ATCC49619, Table 1, class symbols, read-out: MIC S PNE 1195
[21] = Streptococcus pyogenes, 712, Table 1, class symbols, read-out: MIC S PYO 712

CN[C@H](CC(C)C)C(=O)N[C@H]1C(=O)N[C@@H](CC(N)=O)C(=O)N[C@H]2C(=O)N[C@H]3C(=O)N[C@H](C(=O)N[C@H](C(=O)O)c4cc(O)cc(O)c4-c4cc3ccc4O)[C@H](O)c3ccc(c(Cl)c3)Oc3cc2cc(c3O[C@@H]2O[C@H](CO)[C@@H](O)[C@H](O)[C@H]2O[C@H]2C[C@](C)(N)[C@H](O)[C@H](C)O2)Oc2ccc(cc2Cl)[C@H]1O [Vancomycin, vancomycin, reference compound]
MIC ([1]; ATCC29213, read-out: MIC SA 100): 1 µg/mL (≈ 0.69 µM) | MIC SA 100 [1, 11]: 1 µg/mL | MIC ([2]; read-out: MIC SA 757, Table 1, numeric value, comparison): 1 µg/mL (≈ 0.69 µM) | MIC ([2]; read-out: MIC SA 757, Table 2, in the presence of 0.002% Polysorbate 80, numeric value, comparison): 2 µg/mL | MIC ([3]; read-out: MIC SA 2012, Table 1, numeric value, comparison): 8 µg/mL (≈ 5.52 µM) | MIC ([3]; read-out: MIC SA 2012, Table 2, in the presence of 0.002% Polysorbate 80, numeric value, comparison): 4 µg/mL | MIC ([4]; Staphylococcus epidermidis, 835, read-out: MIC SE 835, Table 1, numeric value, comparison): 4 µg/mL (≈ 2.76 µM) | MIC ([4]; Staphylococcus epidermidis, 835, read-out: MIC SE 835, Table 2, in the presence of 0.002% Polysorbate 80, numeric value, comparison): 2 µg/mL | MIC [5]: 2 µg/mL (≈ 1.38 µM) | MIC SE 831 [5, 11]: 2 µg/mL | MIC ([6]; ATCC29212, read-out: MIC E FC 101): 4 µg/mL (≈ 2.76 µM) | MIC E FC 101 [6, 11]: 4 µg/mL | MIC E FC 848 [7, 12]: >64 µg/mL | MIC [7]: > 64 µg/mL | MIC (Enterococcus faecium 800; Enterococcus faecium, 800, read-out: MIC E FCM 800): 1 µg/mL (≈ 0.69 µM) | MIC E FCM 800 (Enterococcus faecium 800; [11]): 1 µg/mL | MIC E FCM 752 [8, 12]: >64 µg/mL | MIC [8]: > 64 µg/mL | MIC ([9]; ATCC49619, read-out: MIC S PNE 1195): 0.25 µg/mL (≈ 0.173 µM) | MIC S PNE 1195 [9, 11]: 0.25 µg/mL | MIC ([10]; Streptococcus pyogenes, 712, read-out: MIC S PYO 712): 0.5 µg/mL (≈ 0.345 µM) | MIC S PYO 712 [10, 11]: 0.5 µg/mL

CCCCOCC(=O)NC(=O)C[C@@H]1NC(=O)[C@H](NC(=O)[C@@H](CC(C)C)NC)[C@H](O)c2ccc(c(Cl)c2)Oc2cc3cc(c2O[C@@H]2O[C@H](CO)[C@@H](O)[C@H](O)[C@H]2O[C@H]2C[C@](C)(N)[C@H](O)[C@H](C)O2)Oc2ccc(cc2Cl)[C@@H](O)[C@@H]2NC(=O)[C@H](NC(=O)[C@@H]3NC1=O)c1ccc(O)c(c1)-c1c(O)cc(O)cc1[C@@H](C(=O)NC1C3CC4CC(C3)CC1C4)NC2=O (some centres unmarked) [Compound 44]
MIC [1, 13]: 0.5 to 1 µg/mL (≈ 0.295 to 0.589 µM) | MIC [2, 14]: 0.5 to 1 µg/mL (≈ 0.295 to 0.589 µM) | MIC [3, 15]: 2 to 4 µg/mL (≈ 1.18 to 2.36 µM) | MIC [4, 16]: 0.01 to 0.5 µg/mL (≈ 0.00589 to 0.295 µM) | MIC ([5]; Table 1, class symbols): 0.01 to 0.5 µg/mL (≈ 0.00589 to 0.295 µM) | MIC [6, 17]: 0.5 to 1 µg/mL (≈ 0.295 to 0.589 µM) | MIC [7, 18]: > 16 µg/mL | MIC (Enterococcus faecium 800; [19]): 0.01 to 0.5 µg/mL (≈ 0.00589 to 0.295 µM) | MIC [8, 18]: > 16 µg/mL | MIC [9, 20]: 0.01 to 0.5 µg/mL (≈ 0.00589 to 0.295 µM) | MIC [10, 21]: 0.01 to 0.5 µg/mL (≈ 0.00589 to 0.295 µM)

CCOCCOCCOc1ccc(S(=O)(=O)NC(=O)C[C@@H]2NC(=O)[C@H](NC(=O)[C@@H](CC(C)C)NC)[C@H](O)c3ccc(c(Cl)c3)Oc3cc4cc(c3O[C@@H]3O[C@H](CN)[C@@H](O)[C@H](O)[C@H]3O)Oc3ccc(cc3Cl)[C@@H](O)[C@@H]3NC(=O)[C@H](NC(=O)[C@@H]4NC2=O)c2ccc(O)c(c2)-c2c(O)cc(O)cc2[C@@H](C(=O)NC2C4CC5CC(C4)CC2C5)NC3=O)cc1 (some centres unmarked) [Compound 103]
MIC [1, 13]: 0.5 to 1 µg/mL (≈ 0.292 to 0.585 µM) | MIC [2, 14]: 0.01 to 0.5 µg/mL (≈ 0.00585 to 0.292 µM) | MIC [3, 15]: 1 to 2 µg/mL (≈ 0.585 to 1.17 µM) | MIC [4, 16]: 0.01 to 0.5 µg/mL (≈ 0.00585 to 0.292 µM) | MIC ([5]; Table 1, class symbols): 0.01 to 0.5 µg/mL (≈ 0.00585 to 0.292 µM) | MIC [6, 17]: 0.01 to 0.5 µg/mL (≈ 0.00585 to 0.292 µM) | MIC [7, 18]: 2 to 4 µg/mL (≈ 1.17 to 2.34 µM) | MIC (Enterococcus faecium 800; [19]): 0.01 to 0.5 µg/mL (≈ 0.00585 to 0.292 µM) | MIC [8, 18]: 1 to 2 µg/mL (≈ 0.585 to 1.17 µM) | MIC [9, 20]: 0.5 to 1 µg/mL (≈ 0.292 to 0.585 µM) | MIC [10, 21]: 0.01 to 0.5 µg/mL (≈ 0.00585 to 0.292 µM)
